Data published in patent US20250282728A1, “NITROGEN COMPRISING HETEROCYCLIC DERIVATIVES FOR THE TREATMENT OF DISORDERS ASSOCIATED WITH GPR55 RECEPTOR” (Cerevance, Inc., priority 2022, published 2025).

Columns and labels:
human GPR55 = molecular target: T1, human GPR55 (Homo sapiens, UniProt Q9Y2T6); experiment: Ca2+ mobilization assay (FLIPR, Calcium5 dye), human GPR55; type: cell-based; settings: HEK293 cells co-expressing PK-tagged human GPR55 and EA-tagged beta-arrestin; intracellular calcium increase
T1 construct: expressed in transfected cells; host or cells: HEK293 (human embryonic kidney) cells
In short: (§1)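 HEK293 cells co-expressing PK-tagged human or rat GPR55 and EA-tagged beta-arrestin were loaded with Calcium5 dye for 1 hour at 37° C in HEPES/HBSS buffer, pH 7.4, with probenecid and 0.1% BSA. Compound dilution series were added in duplicate and calcium rise followed by FLIPR fluorescence; response = maximum minus minimum.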

rat GPR55 = molecular target: T2, rat GPR55 (Rattus norvegicus, UniProt F1MAK4); experiment: Ca2+ mobilization assay (FLIPR, Calcium5 dye), rat GPR55; type: cell-based; settings: HEK293 cells co-expressing PK-tagged rat GPR55 and EA-tagged beta-arrestin; intracellular calcium increase
T2 construct: expressed in transfected cells; host or cells: HEK293 (human embryonic kidney) cells
T2 sequence (F1MAK4 1-319): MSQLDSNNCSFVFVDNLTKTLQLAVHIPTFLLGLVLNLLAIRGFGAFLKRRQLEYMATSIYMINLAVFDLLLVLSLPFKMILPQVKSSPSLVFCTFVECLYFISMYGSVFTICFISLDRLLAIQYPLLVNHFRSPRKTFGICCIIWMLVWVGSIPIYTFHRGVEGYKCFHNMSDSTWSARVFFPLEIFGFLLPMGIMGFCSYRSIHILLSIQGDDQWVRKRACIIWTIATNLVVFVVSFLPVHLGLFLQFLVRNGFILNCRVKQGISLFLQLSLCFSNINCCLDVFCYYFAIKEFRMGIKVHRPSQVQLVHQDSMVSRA
In short: as §1

[1] = system: striatal medium spiny neurons; experiment: Electrophysiology assay: whole-cell patch clamp, firing frequency; type: cell-based, Wistar rat; settings: rat striatal cultures, current steps 10-200 pA
Method: Selected compounds were tested in electrophysiology.
Striatal cultures were prepared as follows. Wistar rat embryos (E18) were sacrificed by cervical dislocation and brains removed into an ice-cold hanks balanced salt solution (HBSS) containing 10 mM HEPES, 1 mM sodium pyruvate and 0.035% sodium bicarbonate. The brain was hemisected, striata removed and placed in a papain solution (Worthington LK003150) for 10 min at 37° C. Tissue was then vigorously triturated until devoid of clumps, passed through a 70 μm mesh filter and centrifuged at 1000 rcf for 5 min. Supernatant was discarded and cells resuspended and centrifuged once more through an ovomucoid gradient before final resuspension in plating medium (containing EMEM 75%, FBS 10%, glutamate 12.5 μM, GlutaMax 0.5 mM, sodium pyruvate 10 mM, glucose 33.3 mM, HEPES […]). Cells were counted and spot plated onto 13 mm coverslips at a density of 200K. After 3 h, solution was topped up to 1 ml with growth medium (containing NBplus 98%, B27plus 2%, GlutaMax 0.5 mM). […]
Whole-cell patch clamp recordings were performed from visually identified medium spiny neurons. A step protocol was applied to inject current into the cell (10-200 pA, 10 pA steps, 500 ms) and resulting action potentials recorded. […] Frequency of firing was analysed off-line using Clampfit software.

T1 sequence (Q9Y2T6 whole entry): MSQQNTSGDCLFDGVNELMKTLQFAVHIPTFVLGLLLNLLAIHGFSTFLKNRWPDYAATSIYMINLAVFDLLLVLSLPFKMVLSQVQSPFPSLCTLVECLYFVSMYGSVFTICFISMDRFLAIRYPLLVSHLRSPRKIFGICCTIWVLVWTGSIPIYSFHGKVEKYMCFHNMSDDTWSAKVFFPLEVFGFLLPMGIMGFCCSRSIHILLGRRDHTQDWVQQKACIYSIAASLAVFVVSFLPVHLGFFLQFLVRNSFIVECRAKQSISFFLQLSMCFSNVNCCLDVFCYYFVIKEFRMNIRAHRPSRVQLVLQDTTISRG

| EC50 (human GPR55) | EC50 (rat GPR55) | SMILES | firing frequency of medium spiny neurons relative to baseline ([1]; 1 μM, FIG. 3) | firing frequency of medium spiny neurons relative to baseline ([1]; 10 μM, FIG. 2) |
| --- | --- | --- | --- | --- |
| ≤ 50 nM | ≤ 50 nM | C[C@@H](Nc1cnc(-c2cncc(CC(F)F)c2)cn1)c1ccc(F)cc1 [Example 31, (R)-5-(5-(2,2-difluoroethyl)pyridin-3-yl)-N-(1-(4-fluorophenyl)ethyl)pyrazin-2-amine] | significantly reduced the frequency |  |
| ≤ 200 nM | ≤ 50 nM | COc1cncc(-c2ccc(N[C@H](C)c3ccc(F)cc3)nc2)c1 [Example 6, (R)-N-(1-(4-fluorophenyl)ethyl)-5′-methoxy-[3,3′-bipyridin]-6-amine] |  | significantly reduced the frequency |
